Like-named read-outs stand apart in the source and are kept apart here.

For assay [1], the system named is influenza A virus (A/PR/8/34). Briefly: microbe, parasite or virus in culture. Conditions: read-out: IC50 (mean all). In kind it is cell-based.
Assay [2] has as its system A/PR/8/34 influenza virus. Briefly: microbe, parasite or virus in culture. The note with it: read-out: EC50 (mean all). It counts as cell-based.
Setting [3] is: Influenza A virus, PR/8, MDCK, MDCK cells infected with A/PR/8/34, survival of infected cells, class symbols.
The mark [4] stands for this setting: Influenza A virus, PR/8, MDCK, MDCK cells infected with A/PR/8/34, replication of influenza virus (viral RNA, bDNA), class symbols.
The mark [5] stands for this setting: MDCK cells infected with A/PR/8/34, survival of infected cells, class symbols.
[6] abbreviates: MDCK cells infected with A/PR/8/34, replication of influenza virus (viral RNA, bDNA), class symbols.
The mark [7] stands for this setting: Influenza A virus, PR/8, MDCK, CPE assay, A/PR/8/34 infected MDCK cells, class symbols.
Where [8] appears, read: Influenza A virus, PR/8, MDCK, bDNA assay, A/PR/8/34 influenza virus replication in MDCK cells, class symbols.
[9] abbreviates: CPE assay, A/PR/8/34 infected MDCK cells, class symbols.
The mark [10] stands for this setting: bDNA assay, A/PR/8/34 influenza virus replication in MDCK cells, class symbols.

The IC50 is the midpoint of a concentration-inhibition curve. For orientation: EC50 means the concentration giving half of the maximal effect. Turning to `NC1CCCC(Nc2nc(-c3c[nH]c4ncc(Cl)cc34)ncc2F)C1` (stereo not drawn) [Compound 540, N-[2-(5-chloro-1H-pyrrolo[5,4-b]pyridin-3-yl)-5-fluoro-pyrimidin-4-yl]cyclohexane-cis-1,3-diamine], the concentration for half-maximal inhibition (IC50) in assay [1] (setting [3]) is less than 5 µM. Moreover, in assay [2] (setting [4]), the EC50 is less than 5 µM.

In the case of `N[C@H]1CCC[C@@H](Nc2nc(-c3c[nH]c4ncc(Cl)cc34)ncc2F)C1` [Compound 542, (1R,3S)—N1-[2-(5-chloro-1H-pyrrolo[2,3-b]pyridin-3-yl)-5-fluoro-pyrimidin-4-yl]cyclohexane-1,3-diamine], in assay [1] (setting [3]), the IC50 was in the range of 5 to 20 µM. In addition, the EC50 in assay [2] (setting [4]) lay in the range of 5 to 10 µM.

Take `O=C(O)[C@H]1CCCC[C@@H]1Nc1nc(-c2c[nH]c3ncc(Cl)cc23)ncc1F` [Compound 553, (1S,2S)-2-[[2-(5-chloro-1H-pyrrolo[5,4-b]pyridin-3-yl)-5-fluoro-pyrimidin-4-yl]amino]cyclohexane-1-carboxylic acid]: in assay [1] (setting [3]), the IC50 was less than 5 µM. In addition, the EC50 in assay [2] (setting [4]) was less than 5 µM.

For `CCOC(=O)[C@@H]1CCCC[C@H]1Nc1nc(-c2c[nH]c3ncc(Cl)cc23)ncc1F` [Compound 560, (1R,2R)-ethyl 2-(2-(5-chloro-1H-pyrrolo[2,3-b]pyridin-3-yl)-5-fluoropyrimidin-4-ylamino)cyclohexanecarboxylate], in assay [1] (setting [3]), the concentration for half-maximal inhibition (IC50) was more than 10 µM. Further, the concentration giving a half-maximal response (EC50) in assay [2] (setting [4]) was more than 10 µM.

Consider `CCOC(=O)[C@H]1CCCC[C@@H]1Nc1nc(-c2c[nH]c3ncc(Cl)cc23)ncc1F` [Compound 561, (1S,2S)-ethyl 2-(2-(5-chloro-1H-pyrrolo[2,3-b]pyridin-3-yl)-5-fluoropyrimidin-4-ylamino)cyclohexanecarboxylate], for which the half-maximal inhibitory concentration (IC50) in assay [1] (setting [3]) is 5 to 20 µM. Further, the half-maximal effective concentration (EC50) in assay [2] (setting [4]) was less than 5 µM.

In the case of `CC1(O)CCCCC1Nc1nc(-c2c[nH]c3ncc(Cl)cc23)ncc1F` (stereo not drawn) [Compound 562, 2-(2-(5-chloro-1H-pyrrolo[2,3-b]pyridin-3-yl)-5-fluoropyrimidin-4-ylamino)-1-methylcyclohexanol], in assay [1] (setting [3]), the IC50 is more than 10 µM. The 50% effective concentration (EC50) in assay [2] (setting [4]) was less than 5 µM.

Regarding `O=C(O)[C@H]1CC[C@@H](Nc2nc(-c3c[nH]c4ncc(Cl)cc34)ncc2F)C1` [Compound 565], the IC50 in assay [1] (setting [3]) was 5 to 20 µM. In addition, the EC50 in assay [2] (setting [4]) is less than 5 µM.

Turning to `O=C(O)[C@@H]1CC[C@H](Nc2nc(-c3c[nH]c4ncc(Cl)cc34)ncc2F)C1` [Compound 566], the half-maximal inhibitory concentration (IC50) in assay [1] (setting [3]) is less than 5 µM. In addition, the EC50 in assay [2] (setting [4]) is less than 5 µM.

Consider `NC(=O)CN1CCC[C@H](Nc2nc(-c3c[nH]c4ncc(Cl)cc34)ncc2F)C1` [Compound 567], for which, in assay [1] (setting [3]), the IC50 is less than 5 µM. The EC50 in assay [2] (setting [4]) was less than 5 µM.

`CC(C)OC(=O)[C@@H]1CCCC[C@H]1Nc1nc(-c2c[nH]c3ncc(Cl)cc23)ncc1F` [Compound 568, (1R,2R)-isopropyl 2-(2-(5-chloro-1H-pyrrolo[2,3-b]pyridin-3-yl)-5-fluoropyrimidin-4-ylamino)cyclohexanecarboxylate]: the concentration for half-maximal inhibition (IC50) in assay [1] (setting [3]) was more than 10 µM. Besides, in assay [2] (setting [4]), the 50% effective concentration (EC50) was more than 10 µM.

For `CC(C)OC(=O)[C@H]1CCCC[C@@H]1Nc1nc(-c2c[nH]c3ncc(Cl)cc23)ncc1F` [Compound 569, (1S,2S)-isopropyl 2-(2-(5-chloro-1H-pyrrolo[2,3-b]pyridin-3-yl)-5-fluoropyrimidin-4-ylamino)cyclohexanecarboxylate], the IC50 in assay [1] (setting [3]) was more than 10 µM. Also, in assay [2] (setting [4]), the 50% effective concentration (EC50) was more than 10 µM.

As for `COC(=O)N[C@@H]1CCC[C@H](Nc2nc(-c3c[nH]c4ncc(Cl)cc34)ncc2F)C1` [Compound 570, methyl N-[(1R,3S)-3-[[2-(5-chloro-1H-pyrrolo[2,3-b]pyridin-3-yl)-5-fluoro-pyrimidin-4-yl]amino]cyclohexyl]carbamate], the half-inhibitory concentration (IC50) in assay [1] (setting [3]) was less than 5 µM. In assay [2] (setting [4]), the concentration for a half-maximal effect (EC50) is less than 5 µM.

As for `CC1(O)CCC[C@H](Nc2nc(-c3c[nH]c4ncc(Cl)cc34)ncc2F)C1` (stereo partly drawn) [Compound 571], the half-maximal inhibitory concentration (IC50) in assay [1] (setting [5]) is less than 5 µM. Moreover, the concentration for a half-maximal effect (EC50) in assay [2] (setting [6]) is less than 5 µM.

`CC1(O)CCC[C@H](Nc2nc(-c3c[nH]c4ncc(Cl)cc34)ncc2F)C1` (stereo partly drawn) [Compound 572]: the IC50 in assay [1] (setting [5]) was less than 5 µM. For the same compound, in assay [2] (setting [6]), the EC50 was less than 5 µM.

As for `O=C(O)[C@@H]1CCCC[C@@H]1Nc1nc(-c2c[nH]c3ncc(Cl)cc23)ncc1F` [Compound 578, (1R,2S)-2-(2-(5-chloro-1H-pyrrolo[2,3-b]pyridin-3-yl)-5-fluoropyrimidin-4-ylamino)cyclohexanecarboxylic acid], the IC50 in assay [1] (setting [3]) is less than 5 µM. For the same compound, the EC50 in assay [2] (setting [4]) is less than 5 µM.

As for `OC[C@@H](O)CN1CCCC(Nc2nc(-c3c[nH]c4ncc(Cl)cc34)ncc2F)C1` (stereo partly drawn) [Compound 587], the concentration for half-maximal inhibition (IC50) in assay [1] (setting [3]) is less than 5 µM. Also, in assay [2] (setting [4]), the concentration for a half-maximal effect (EC50) is less than 5 µM.

`COCC(=O)N[C@@H]1CCC[C@H](Nc2nc(-c3c[nH]c4ncc(Cl)cc34)ncc2F)C1` [Compound 591, N-[(1R,3S)-3-[[2-(5-chloro-1H-pyrrolo[2,3-b]pyridin-3-yl)-5-fluoro-pyrimidin-4-yl]amino]cyclohexyl]-2-methoxy-acetamide]: in assay [1] (setting [3]), the half-inhibitory concentration (IC50) is less than 5 µM. Moreover, the concentration for a half-maximal effect (EC50) in assay [2] (setting [4]) is less than 5 µM.

As to `Fc1cnc(-c2c[nH]c3ncc(Cl)cc23)nc1NC1CCCN(Cc2cnc[nH]2)C1` (stereo not drawn) [Compound 594, N-(1-((1H-imidazol-5-yl)methyl)piperidin-3-yl)-2-(5-chloro-1H-pyrrolo[2,3-b]pyridin-3-yl)-5-fluoropyrimidin-4-amine], in assay [1] (setting [3]), the IC50 was less than 5 µM. Also, the 50% effective concentration (EC50) in assay [2] (setting [4]) was less than 5 µM.

Consider `COCCN1CCCC(Nc2nc(-c3c[nH]c4ncc(Cl)cc34)ncc2F)C1` (stereo not drawn) [Compound 595], for which the IC50 in assay [1] (setting [7]) is less than 5 µM. Further, in assay [2] (setting [8]), the concentration for a half-maximal effect (EC50) was less than 5 µM.

`CC(C)(C(N)=O)N1CCC[C@H](Nc2nc(-c3c[nH]c4ncc(Cl)cc34)ncc2F)C1` [Compound 598]: the 50% inhibitory concentration (IC50) in assay [1] (setting [7]) is less than 5 µM. Moreover, in assay [2] (setting [8]), the EC50 is less than 5 µM.

For `CNC(=O)C(C)(C)N1CCC[C@H](Nc2nc(-c3c[nH]c4ncc(Cl)cc34)ncc2F)C1` [Compound 599], the half-maximal inhibitory concentration (IC50) in assay [1] (setting [7]) was less than 5 µM. Further, in assay [2] (setting [8]), the EC50 was less than 5 µM.

For `CN(C)C(=O)C(C)(C)N1CCC[C@H](Nc2nc(-c3c[nH]c4ncc(Cl)cc34)ncc2F)C1` [Compound 600], the 50% inhibitory concentration (IC50) in assay [1] (setting [7]) was less than 5 µM. Also, the EC50 in assay [2] (setting [8]) is less than 5 µM.

For the compound `COCCNC(=O)C(C)(C)N1CCC[C@H](Nc2nc(-c3c[nH]c4ncc(Cl)cc34)ncc2F)C1` [Compound 601], the IC50 in assay [1] (setting [7]) is less than 5 µM. The concentration giving a half-maximal response (EC50) in assay [2] (setting [8]) is less than 5 µM.

In the case of `CC(C)(C(=O)NC1CC1)N1CCC[C@H](Nc2nc(-c3c[nH]c4ncc(Cl)cc34)ncc2F)C1` [Compound 602], the IC50 in assay [1] (setting [7]) was less than 5 µM. Besides, in assay [2] (setting [8]), the EC50 was less than 5 µM.

For `NC(=O)C(O)CN1CCCC(Nc2nc(-c3c[nH]c4ncc(Cl)cc34)ncc2F)C1` [Compound 603, 3-((S)-3-((2-(5-chloro-1H-pyrrolo[2,3-b]pyridin-3-yl)-5-fluoropyrimidin-4-ylamino)piperidin-1-yl)-2-hydroxypropanamide], the 50% inhibitory concentration (IC50) in assay [1] (setting [7]) was less than 5 µM. Further, the EC50 in assay [2] (setting [8]) is less than 5 µM.

Consider `O=C(O)C1CNCCC1Nc1nc(-c2c[nH]c3ncc(Cl)cc23)ncc1F` (stereo not drawn) [Compound 605], for which, in assay [1] (setting [9]), the half-inhibitory concentration (IC50) is more than 10 µM. For the same compound, the EC50 in assay [2] (setting [10]) is more than 3.3 µM.

Turning to `CNC(=O)C(C)N1CCCC(Nc2nc(-c3c[nH]c4ncc(Cl)cc34)ncc2F)C1` [Compound 606, 2-((S)-3-((2-(5-chloro-1H-pyrrolo[2,3-b]pyridin-3-yl)-5-fluoropyrimidin-4-ylamino)piperidin-1-yl)-N-methylpropanamide], the IC50 in assay [1] (setting [7]) was less than 5 µM. The EC50 in assay [2] (setting [8]) was less than 5 µM.

Take `CC(=O)N1CCC(Nc2nc(-c3c[nH]c4ncc(Cl)cc34)ncc2F)C(C(=O)O)C1` (stereo not drawn) [Compound 607]: the IC50 in assay [1] (setting [9]) was more than 10 µM. For the same compound, the EC50 in assay [2] (setting [10]) is more than 3.3 µM.

Consider `CCNC(=O)OC1CCCC(Nc2nc(-c3c[nH]c4ncc(Cl)cc34)ncc2F)C1` (stereo not drawn) [Compound 608, 3-((2-(5-chloro-1H-pyrrolo[2,3-b]pyridin-3-yl)-5-fluoropyrimidin-4-ylamino)cyclohexyl ethylcarbamate], for which, in assay [1] (Influenza A virus, PR/8, MDCK), the half-inhibitory concentration (IC50) is less than 5 µM. Moreover, the 50% effective concentration (EC50) in assay [2] (Influenza A virus, PR/8, MDCK) was less than 5 µM.

In the case of `COCC(O)CN[C@@H]1CCC[C@H](Nc2nc(-c3c[nH]c4ncc(Cl)cc34)ncc2F)C1` (stereo partly drawn) [Compound 610, 1-[[(1R,3S)-3-[[2-(5-chloro-1H-pyrrolo[2,3-b]pyridin-3-yl)-5-fluoro-pyrimidin-4-yl]amino]cyclohexyl]amino]-3-methoxy-propan-2-ol], the IC50 in assay [1] (setting [7]) was less than 5 µM. Also, in assay [2] (setting [8]), the half-maximal effective concentration (EC50) was more than 3.3 µM.

With `COCCC(=O)N[C@@H]1CCC[C@H](Nc2nc(-c3c[nH]c4ncc(Cl)cc34)ncc2F)C1` [Compound 611], in assay [1] (setting [7]), the IC50 is less than 5 µM. In addition, in assay [2] (setting [8]), the EC50 is less than 5 µM.

`NC(=O)CN1CCCC(Nc2nc(-c3c[nH]c4ncc(F)cc34)ncc2F)C1` (stereo not drawn) [Compound 613]: the half-inhibitory concentration (IC50) in assay [1] (setting [9]) was less than 5 µM. Also, the half-maximal effective concentration (EC50) in assay [2] (setting [10]) was less than 5 µM.

Regarding `OC(CN1CCCC(Nc2nc(-c3c[nH]c4ncc(Cl)cc34)ncc2F)C1)C(F)(F)F` (stereo not drawn) [Compound 614], in assay [1] (setting [9]), the IC50 was less than 5 µM. In addition, the half-maximal effective concentration (EC50) in assay [2] (setting [10]) is less than 5 µM.

For the compound `O[C@H]1[C@@H](Nc2nc(-c3c[nH]c4ncc(Cl)cc34)ncc2F)CCC[C@@H]1O` [Compound 615], in assay [1] (setting [7]), the half-maximal inhibitory concentration (IC50) was less than 5 µM. The EC50 in assay [2] (setting [8]) was less than 5 µM.

As to `O[C@H]1[C@H](O)CCC[C@H]1Nc1nc(-c2c[nH]c3ncc(Cl)cc23)ncc1F` [Compound 616], the 50% inhibitory concentration (IC50) in assay [1] (setting [7]) was more than 10 µM. Moreover, the EC50 in assay [2] (setting [8]) was more than 3.3 µM.

As to `C#CC1(O)CCCC(Nc2nc(-c3c[nH]c4ncc(Cl)cc34)ncc2F)C1` (stereo not drawn) [Compound 617], in assay [1] (setting [9]), the IC50 was less than 5 µM. Besides, in assay [2] (setting [10]), the EC50 is less than 5 µM.

The values are drawn from patent US8829007B2 (priority 2009, dated 2014).
